Earlier results as cited in patent US5935954A, “Compounds with improved multi-drug resistance activity” (Vertex Pharmaceuticals Incorporated, priority 1997, dated 1999).

How the values were obtained:
[1] = test system: rat pheochromocytoma cell line; conditions: with NGF; cited from earlier work
sensory ganglia = conditions: cited from earlier work
nerve cells = conditions: cited from earlier work
[2] = test system: multi-drug resistant ("MDR") cells; conditions: cited from earlier work
[3] = test system: FK506 binding protein or FKBP12; conditions: cited from earlier work

Compound	neurite outgrowth [1]	neurotrophic effects (sensory ganglia)	stimulation of neurite outgrowth (nerve cells)	sensitization of MDR cells / activity against multi-drug resistance [2]	binding to FKBP12 [3]
C=CC[C@@H]1/C=C(\C)C[C@H](C)C[C@H](OC)[C@H]2O[C@@](O)(C(=O)C(=O)N3CCCC[C@H]3C(=O)O[C@H](/C(C)=C/[C@@H]3CC[C@@H](O)[C@H](OC)C3)[C@H](C)[C@@H](O)CC1=O)[C@H](C)C[C@@H]2OC [FK506]	acts synergistically	demonstrated similar neurotrophic effects	effective in stimulating neurite outgrowth	effective against multi-drug resistance	have the ability to bind
CO[C@H]1C[C@@H]2CC[C@@H](C)[C@@](O)(O2)C(=O)C(=O)N2CCCC[C@H]2C(=O)O[C@H]([C@H](C)C[C@@H]2CC[C@@H](O)[C@H](OC)C2)CC(=O)[C@H](C)/C=C(\C)[C@@H](O)[C@@H](OC)C(=O)[C@H](C)C[C@H](C)/C=C/C=C/C=C/1C [rapamycin]	did not inhibit the effects of FK-506 on neurite outgrowth, but rather was neurotrophic itself, displaying an additive effect with FK-506	those effects were blocked by rapamycin			have the ability to bind
